Read-outs that look alike come from different tables or passages of the source.
Experiments:
[1] = test system: CYP1A2, 2C9, 2C19, 2D6, and 3A4 pooled human supersomes; settings: 10 μM, recorded from major to minor
[2] = test system: pooled cryopreserved primary human hepatocytes; settings: single drug, 10 μM, 3 h
[3] = molecular target: CYP2C19 pooled human supersomes (Homo sapiens, UniProt P33261); assay: CYP2C19 supersome screening; format: in vitro ADME; settings: 10 μM; strongly metabolized = less than 80% of the drug remaining
[4] = molecular target: CYP2C9 pooled human supersomes (Homo sapiens, UniProt P11712); assay: CYP2C9 supersome screening; format: in vitro ADME; settings: 10 μM; strongly metabolized = less than 80% of the drug remaining
Sequence of CYP2C9 pooled human supersomes (P11712 whole entry): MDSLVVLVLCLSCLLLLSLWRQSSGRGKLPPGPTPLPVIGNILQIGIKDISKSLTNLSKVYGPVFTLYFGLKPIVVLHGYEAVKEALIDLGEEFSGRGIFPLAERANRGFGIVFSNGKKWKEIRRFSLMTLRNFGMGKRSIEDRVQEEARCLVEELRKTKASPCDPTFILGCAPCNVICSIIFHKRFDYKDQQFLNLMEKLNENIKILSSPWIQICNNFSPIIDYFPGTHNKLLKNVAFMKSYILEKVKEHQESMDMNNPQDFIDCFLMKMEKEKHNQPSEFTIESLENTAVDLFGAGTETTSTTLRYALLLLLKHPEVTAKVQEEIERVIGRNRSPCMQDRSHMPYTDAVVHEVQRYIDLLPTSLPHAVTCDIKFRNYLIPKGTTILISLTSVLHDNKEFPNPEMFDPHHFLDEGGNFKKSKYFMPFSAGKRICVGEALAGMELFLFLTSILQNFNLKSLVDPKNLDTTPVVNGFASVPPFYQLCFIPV

Sequence of CYP2C19 pooled human supersomes (P33261 whole entry): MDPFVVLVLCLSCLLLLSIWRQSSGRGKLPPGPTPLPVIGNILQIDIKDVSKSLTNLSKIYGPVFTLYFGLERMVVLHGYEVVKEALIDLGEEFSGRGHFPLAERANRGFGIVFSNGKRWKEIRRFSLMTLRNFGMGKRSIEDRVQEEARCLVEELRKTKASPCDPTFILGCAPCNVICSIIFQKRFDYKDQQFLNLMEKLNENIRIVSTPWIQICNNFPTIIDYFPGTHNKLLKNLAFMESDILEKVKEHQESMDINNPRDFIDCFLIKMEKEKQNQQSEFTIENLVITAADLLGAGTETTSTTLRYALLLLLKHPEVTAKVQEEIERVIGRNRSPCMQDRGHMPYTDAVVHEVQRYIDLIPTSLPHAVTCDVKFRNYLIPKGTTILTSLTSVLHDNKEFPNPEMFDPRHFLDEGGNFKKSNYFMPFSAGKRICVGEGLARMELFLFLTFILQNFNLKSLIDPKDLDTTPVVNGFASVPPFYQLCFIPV

Question: For `COCCCC/C(=N\OCCN)c1ccc(C(F)(F)F)cc1` [Fluvoxamine, fluvoxamine], which “Metabolism Pathway: CYP Pathway (isoenzymes showing parent degradation)” value (“Metabolism Pathway: CYP Pathway” below) [1] is on record?
Answer: CYP 2D6∗, 2C9, 2C19

Question: And the “Metabolism Pathway: CYP Pathway” value ([1]; listed as fluvoxamine)?
Answer: CYP2D6, 2C9, and 2C19

Question: Which “Potential metabolites observed in hepatocytes (alone) assays” value [2] does the source give for `Fc1ccc([C@@H]2CCNC[C@H]2COc2ccc3c(c2)OCO3)cc1` [Paroxetine, paroxetine] here?
Answer: no potential metabolites observed

Question: How did the “Drug remaining with CYP2C19 (strongly metabolized)” value [3] turn out when `CN(C)CCCC1(c2ccc(F)cc2)OCc2cc(C#N)ccc21` (centres unmarked) [Citalopram, citalopram] was run?
Answer: less than 80%

Question: What about the “Metabolism Pathway: CYP Pathway” value [1] of the same compound?
Answer: CYP 2D6∗, 2C19∗, 3A4, 2C9

Question: And the “Metabolism Pathway: CYP Pathway” value ([1]; listed as citalopram)?
Answer: CYP2D6, 2C19, 3A4, and 2C9

Question: Which results are given for `COc1ccc(C(CN(C)C)C2(O)CCCCC2)cc1` (centres unmarked) [Venlafaxine, venlafaxine]?
Answer: Metabolism Pathway: CYP Pathway (isoenzymes showing parent degradation) [1]: CYP 2D6∗, 2C19∗; Metabolism Pathway: CYP Pathway (isoenzymes showing parent degradation) ([1]; listed as venlafaxine): CYP2D6 and 2C19

Question: How did the “Drug remaining with CYP2C19 (strongly metabolized)” value [3] turn out when `CN[C@H]1CC[C@@H](c2ccc(Cl)c(Cl)c2)c2ccccc21` [Sertraline, sertraline] was run?
Answer: less than 80%

Question: What about the “Drug remaining with CYP2C9 (strongly metabolized)” value [4] of the same compound?
Answer: less than 80%

Question: What about the “Metabolism Pathway: CYP Pathway” value [1] of the same compound?
Answer: CYP 2D6∗, 2C9∗, 2C19∗, 1A2, 3A4

Question: What about the “Metabolism Pathway: CYP Pathway” value ([1]; listed as sertraline) of the same compound?
Answer: CYP2D6, 2C9, 2C19, 1A2, and 3A4

Question: For `COc1cc2ncnc(Nc3ccc(F)c(Cl)c3)c2cc1OCCCN1CCOCC1` [Gefitinib, gefitinib], which “Metabolism Pathway: CYP Pathway” value [1] is on record?
Answer: CYP 2D6 ∗, 3A4∗, 1A2, 2C9, 2C19

Question: What about the “Metabolism Pathway: CYP Pathway” value ([1]; listed as gefitinib) of the same compound?
Answer: CYP2D6, 3A4, 1A2, 2C9, and 2C19
